Data on five compounds can be found in patent US9416103B2, “Use of the aminoalkylindole JWH-073-M4 and related compounds as neutral CB1 receptor antagonists for the treatment of alcoholism, drug abuse, obesity, and obesity-related diseases” (The Board of Trustees of the University of Arkansas, priority 2012, dated 2016).

For assay [1], the target named is T1, CB1Rs (Mus musculus (Mouse), UniProt P47746). The assay can be described thus: Competition receptor binding with [3H]CP-55,940 in mouse brain homogenates. As to the method:
(§1) Mouse brain homogenates for in vitro assays were prepared as previously described. Briefly, whole brains were harvested from B6SJL mice, snap-frozen in liquid nitrogen and stored at −80° C. On the day membrane homogenates were to be prepared, brains were thawed on ice, then pooled in a 40 mL Dounce glass homogenizer and suspended in 5 volumes of ice cold homogenization buffer (50 mM HEPES, pH 7.4, 3 mM MgCl2, and 1 mM EGTA). Brains were then subjected to 10 complete strokes with an A pestle, followed by centrifugation at 40,000×g for 10 minutes at +4° C. Resulting supernatants were discarded, and the pellet was resuspended, homogenized and centrifuged similarly twice more, with supernatants being discarded. For the final resuspension and homogenization with a B pestle, ice-cold 50 mM HEPES was used in place of homogenization buffer, and homogenates were aliquoted and stored at −80° C. Protein concentrations of homogenates were determined using the BCA™ Protein Assay (Thermo Scientific, Rockford, Ill.).
(§2) Competition receptor binding was performed as previously described. […] Reactions were terminated by rapid vacuum filtration through Whatman GF/B glass fiber filters, followed by five washes with ice-cold buffer (50 mM Tris, 0.05% BSA). Filters were immediately placed into 7 mL scintillation vials to which 4 mL of ScintiVerse™ BD Cocktail scintillation fluid (Fisher Scientific, Fair Lawn, N.J.) was added. Bound radioactivity was determined after overnight incubation at room temperature and shaking, by liquid scintillation spectrophotometry with an efficiency of 44% (Tri Carb 2100 TR Liquid Scintillation Analyzer, Packard Instrument Company, Meriden, Conn.). Specific binding is expressed as total binding minus non-specific binding, and is graphed for each data point as a percentage of specific binding occurring in the absence of any competitor.
(§3) Curve fitting and statistical analyses for in vitro experiments were performed using GraphPad Prism™ version 5.0b (GraphPad Software Inc., San Diego, Calif.). The Cheng-Prusoff equation [45] was used to convert the experimental IC50 values obtained from competition receptor binding experiments to Ki values, a quantitative measure of receptor affinity. Non-linear regression for one-site competition was used to determine the IC50 for competition receptor binding. Curve fitting of concentration-effect curves via non-linear regression was also employed to determine the EC50 (a measure of potency) and Emax (a measure of efficacy) for [^35S]GTPγS concentration-effects experiments. […] Data are expressed as mean±SEM. The Student's t-test was used to determine statistical significance (P<0.05) between two groups, while a one-way ANOVA, followed by Tukey's Multiple Comparison post-hoc test, was used to determine statistical significance (P<0.05) between three or more groups.
(§4) The prepared analogues were subjected to in vitro pharmacological testing, which included receptor binding and functional assays at both cannabinoid receptors. Initial receptor binding screens at both CB1Rs and CB2Rs were conducted for the analogues prepared.

The target in assay [2] is CB1Rs endogenously expressed in Neuro2A cells (Mus musculus (Mouse), UniProt P47746). The experiment in a line: Adenylyl cyclase (AC) inhibition via CB1Rs endogenously expressed in Neuro2A cells. In kind it is cell-based.
Assay [3] deals with T2, hCB2Rs (Homo sapiens (Human), UniProt P34972). The experiment in a line: Competition receptor binding with [3H]CP-55,940 in CHO-hCB2 cell homogenates. To be noted: Table 3; read-out: hCB2R Ki. Here is the method:
as §2, §4

Assay [4] deals with T2, hCB2Rs. The assay can be described thus: Inhibition of forskolin-stimulated cAMP production (adenylyl cyclase) in intact CHO-hCB2R cells. Type of assay: cell-based. As to conditions: 10 μM, CHO cell transfected with hCB2 receptors; read-out: AC-inhibition at CB2Rs. Here is the method: Adenylyl cyclases are a family of membrane-bound enzymes that catalyze the intracellular production of the second messenger cAMP from ATP. Adenylyl cyclase activity is modulated by activated G-proteins: Gs-proteins stimulate activity, while Gi/o-proteins are inhibitory. Thus, agonists of G-protein coupled receptors (GPCRs) coupled to Gi/o-proteins, such as hCB2Rs, decrease cAMP production due to inhibition of adenylyl cyclase activity. In this assay, intact CHO-hCB2R cells are preincubated with [^3H]-adenine and treated with forskolin (10 or 30 μM) to stimulate adenylyl cyclase activity.
A functional assay screen for the inhibition of adenylate cyclase (AC) activity was chosen as the subsequent assay. […] Reaching full-receptor occupancy, which is predicted to produce maximal efficacy, is desirable at 10 μM concentration of all the compounds was used.
In general terms: cAMP levels reflect the balance of adenylyl cyclase and phosphodiesterase activity.

Assay [5] concerns the target T1, CB1Rs. The assay can be described thus: [35S]GTPγS binding assay (G-protein activation) in mouse brain homogenates. Type of assay: biochemical. To be noted: for [35S]GTPγS Binding, +O-2050 (1 μM): 1 μM cannabinoid (100 nM for CP-55,940) co-incubated with CB1R antagonist O-2050 1 μM; for [35S]GTPγS Binding, 10 μM: receptor-saturating concentration 10 μM. As to the method: as §1
[^35S]GTPγS binding was performed as previously described. Briefly, 25 μg of mouse brain homogenates were incubated for 30 minutes at 30° C. with 0.1 nM [^35S]GTPγS, 10 μM GDP, and either cannabinoid+/−antagonist, 10 μM unlabeled GTPγS (non-specific binding) or vehicle (total binding), in triplicate, in a volume of 1 mL of buffer containing 20 mM HEPES, 10 mM MgCl2, 100 mM NaCl, 20 units/L adenosine deaminase, 0.05% BSA and the appropriate DMSO (0.1%) and/or ethanol (<0.2%) vehicle. Assay buffer containing 100 mM KCl, instead of 100 mM NaCl, was used to increase basal G-protein activity in experiments examining inverse agonism. Reactions were terminated by quick vacuum filtration through Whatman GF/B glass fiber filters, followed by five washes with ice-cold buffer (20 mM HEPES, 0.05% BSA). Filters were immediately placed into 7 mL scintillation vials to which 4 mL of ScintiVerse™ BD Cocktail scintillation fluid was added. Bound radioactivity was determined after overnight incubation at room temperature and shaking by liquid scintillation spectrophotometry with an efficiency of 93% (Tri Carb 2100 TR Liquid Scintillation Analyzer, Packard Instrument Company, Meriden, Conn.). Specific binding is expressed as picomoles of [^35S]GTPγS bound per mg of protein.
as §3
(In general: Binding of GTPγS marks nucleotide exchange on a G protein.)

The structures appear in SMILES notation. Values joined by “and” are separate entries in the source; they are usually repeats but may differ in a detail not shown here. Equal entries are not always repeated. Where two headings read alike, the source gives them in different places.

Turning to `O=C(O)CCCn1cc(C(=O)c2cccc3ccccc23)c2ccccc21` [Compound M6, 4-(3-(1-naphthoyl)-1H-indole-1-yl)-1-butanoic acid, reference compound], the “displacement of [3H]CP-55,940 specific binding” value on CB1Rs [1] (concentrations as high as 10 μM) is given as “less than 10%”.
As usually defined, the inhibition is the drop in the measured response relative to a control, in per cent. For orientation: Ki means a dissociation constant, usually derived from enzyme kinetics or from competition with a known ligand. Regarding `CCCCn1cc(C(=O)Cc2ccc(F)cc2)c2cccc(OC)c21` [TV-5-129, 1-(1-butyl-7-methoxy-1H-indol-3-yl)-2-(4-fluorophenyl)ethanone], the inhibition at 10 µM in assay [2] (N2a, 10 μM, Neuro2A cells) is -4%; at hCB2Rs [4], 22.1%. The Ki came to 0.281 µM at hCB2Rs [3] and 0.387 ± 0.077 µM at CB1Rs [1] (Table 3, read-out: mCB1R Ki).
For `CCCCn1cc(C(=O)c2cccc3ccccc23)c2ccc(O)cc21` [Compound M3], at CB1Rs [5], the “[35S]GTPγS Binding, 1 μM” value worked out at 0.04 ± 0.00 pmol/mg; the “[35S]GTPγS Binding, +O-2050 (1 μM)” value worked out at 0.02 ± 0.01 pmol/mg; the “[35S]GTPγS Binding, 10 μM” value is 0.11±0.02 pmole/mg and 0.11 ± 0.02^a,b pmole/mg. Besides, the Ki on CB1Rs [1] (mouse brain homogenates, 0.2 nM [3H]CP-55,940, read-out: CB1R affinity (Ki)) is 1.28 ± 0.47 µM.
Turning to `O=C(c1cccc2ccccc12)c1cn(CCCCO)c2ccccc12` [Compound M5], on CB1Rs [5], the “[35S]GTPγS Binding, 1 μM” value came out at 0.12 ± 0.00 pmol/mg; the “[35S]GTPγS Binding, +O-2050 (1 μM)” value was 0.05 ± 0.01 pmol/mg; the “[35S]GTPγS Binding, 10 μM” value was 0.16±0.02 pmole/mg and 0.16 ± 0.02^a pmole/mg. In addition, the inhibition constant Ki on CB1Rs [1] (mouse brain homogenates, 0.2 nM [3H]CP-55,940, read-out: [3H]CP binding Ki) was determined as 0.224 ± 0.009 µM.
Consider `CC1=CC[C@@H]2[C@@H](C1)c1c(O)cc(CC#CCCCNS(C)(=O)=O)cc1OC2(C)C` [Compound O-2050, reference compound], for which, in assay [2] (1 μM concentration), the “antagonism of AC-inhibition produced by the CB1R full agonist JWH-073” value is reported as “antagonized AC-inhibition”.
